In patent publication US7998903B2, “Glycerol-modified silicone spreading agent and a composition comprising the same” (Shin-Etsu Chemical Co., Ltd., priority 2004, dated 2011):

What was measured:
[1] = Degree of solubility (miscibility) of the silicone in oil agents; type: physicochemical; parameters: key: “D” means “dispersed”; “I” means “insoluble.”; A silicone with no mark means that it dissolved to form a transparent solution
Description: (§1) The present invention will be explained in detail with reference to the following Examples, but not limited to them. In the Examples, surface tension was measured with a full automatic tensiometer, model PD-W, ex Kyowa Interface Science Co. Ltd., at 25 degrees C. according to the water drop method in which a contact angle with the air is measured. A surface tension of dimethylpolysiloxane having a viscosity of 30 mm^2/s at 25 degrees C. measured according to this method was 18.2 mN/m. In the tables shown below, “D” and “I” each represents a degree of solubility: “D” means “dispersed” and “I” means “insoluble.” A silicone with no mark means that it dissolved to form a transparent solution.
(§2) Some properties and solubility in oil agents were determined with each of the glycerol-modified silicone prepared in Examples 1 to 5. Surface tension of the mixtures of the silicone and the oil agent were measured, too.

[2] = Surface tension of silicone/oil agent mixtures, automatic tensiometer, 25 degrees C.; type: physicochemical; conditions: for Surface Tension, glycerol-modified silicone/oil agent = 10/90, Liquid paraffin / Surface Tension, glycerol-modified silicone/oil agent = 10/90, Rapeseed oil / Surface Tension, glycerol-modified silicone/oil agent = 10/90, Soybean oil: 25 C.; for Surface Tension, glycerol-modified silicone/oil agent = 10/90, Liquid paraffin: silicone/liquid paraffin = 10/90, neat liquid paraffin 27.9; for Surface Tension, glycerol-modified silicone/oil agent = 10/90, Rapeseed oil: silicone/rapeseed oil = 10/90, neat rapeseed oil 31; for Surface Tension, glycerol-modified silicone/oil agent = 10/90, Soybean oil: silicone/soybean oil = 10/90, neat soybean oil 31.8; for Surface tension, amount added 1 wt % / Surface tension, amount added 5 wt % / Surface tension, amount added 10 wt % / Surface tension, amount added 15 wt %: Table 5, oil agent not named; for Surface tension, amount added 1 wt %: 1 wt % silicone; for Surface tension, amount added 5 wt %: 5 wt % silicone; for Surface tension, amount added 10 wt %: 10 wt % silicone; for Surface tension, amount added 15 wt %: 15 wt % silicone
Description: as §1, §2
Silicones modified with compounds other than glycerol were prepared. Mixtures with the oil agents were prepared and surface tension thereof was measured as in Examples.
Compositions were prepared containing an oil agent and the glycerol-modified silicone in a weight ratio of 90/10 and surface tension thereof was measured.
Silicones without having a glycerol residue and silicones having a structure other than, A-B-A, were prepared and subjected to the measurements as in Examples. Mixtures with the oil agents were prepared each of which surface tension was measured as in Examples.

[3] = tested on: leaf of Citrus Natsudaidai; experiment: Spreading of one drop of liquid paraffin containing silicone on a leaf (FIGS. 1 & 2); conditions: 15 μl drop of liquid paraffin containing 10 wt % silicone; 5 minutes after placing
Description: FIGS. 1 & 2 are photographs each taken 5 minutes after one drop, i.e., 15 μl, of liquid paraffin containing 10 wt % of the silicone of Example 2 and Comparative Example 6, respectively, was placed on a leaf of Citrus Natsudaidai. […] Comparing the figures, the liquid paraffin containing the glycerol-modified silicone in Example 2 has better spreading property than the silicone modified with n-octene.

SMILES | Surface Tension, glycerol-modified silicone/oil agent = 10/90, Liquid paraffin [2] [mN/m] | Surface Tension, glycerol-modified silicone/oil agent = 10/90, Rapeseed oil [2] [mN/m] | Surface Tension, glycerol-modified silicone/oil agent = 10/90, Soybean oil [2] [mN/m] | Surface tension, amount added 1 wt % [2] [mN/m] | Surface tension, amount added 5 wt % [2] [mN/m] | Surface tension, amount added 10 wt % [2] [mN/m] | Surface tension, amount added 15 wt % [2] [mN/m] | also measured
C[Si](C)(CCCOCC(O)CO)O[Si](C)(C)CCCOCC(O)CO (stereo not shown) [Comparative Example 1] |  |  |  |  |  |  |  | Miscibility, glycerol-modified silicone/oil agent = 10/90, Liquid paraffin ([1]; silicone/liquid paraffin = 10/90): (I); Miscibility, glycerol-modified silicone/oil agent = 10/90, Rapeseed oil ([1]; silicone/rapeseed oil = 10/90): (I); Miscibility, glycerol-modified silicone/oil agent = 10/90, Soybean oil ([1]; silicone/soybean oil = 10/90): (I)
CCCCCCCC[Si](C)(O[Si](C)(C)C)O[Si](C)(C)C [Comparative Example 6] | 25.5 | 24.5 | 24.9 | 27.4 | 25.3 | 25.5 | 24.4 | spreading of a drop on a leaf [3]: remained as a small circle
C[Si](C)(C)O[Si](C)(C)CCCOCC(O)CO (stereo not shown) [Example 1] | 21.3 | 22.6 | 21.9 |  |  |  |  | 
CCCCCCCCCCCC[Si](C)(O[Si](C)(C)C)O[Si](C)(C)C [compound 7] | 26.3 |  |  |  |  |  |  | 
CCCCCCCC[Si](C)(C)O[Si](C)(C)O[Si](C)(C)C [compound 8] | 25 |  |  |  |  |  |  | 
C[Si](C)(C)O[Si](C)(CCCCCO)O[Si](C)(C)C [compound 10] | 25.4 |  |  | 26.6 | 25 | 25.4 | 22.7 | 
CC(CCO)C[Si](C)(O[Si](C)(C)C)O[Si](C)(C)C (stereo not shown) [compound 11] | 23.7 | 24.9 | 24.3 | 27 | 24.4 | 23.7 | 23.7 | 
CCC(CO)(CO)COCCC[Si](C)(C)O[Si](C)(C)C [compound 14] | 23 | 26.9 | 27.5 |  |  |  |  | 
CCC(CO)(CO)COCCC[Si](C)(O[Si](C)(C)C)O[Si](C)(C)C [compound 15] | 22.1 | 25.3 | 26 |  |  |  |  | 
